# Test results from patent US20250352539A1, “COMBINATION THERAPY FOR TREATING CANCER” (AstraZeneca AB, priority 2022, published 2025).
# Read-outs that look alike come from different tables or passages of the source.
# What was measured:
# Assay in all cases: 10-day Cell Titre Glo combination screen
# Assay type in all cases: cell-based
# HCC1806 = details: Homo sapiens; HCC1806 breast; monotherapy; read-out: mono AC50
# Description: (§1) The Highest Single Agent (HSA) model is used to determine a combination's synergy score (and is based simply on the intuition that if a combination's effect exceeds the effect level of each of its constituents, there must be some combination interaction). Mathematically, the HSA model describes simple superposition of the single agent curves:
# (§2) where CX,Y are the concentrations of the X and Y compound, and IX and IY are inhibitions of the single agents at CX,Y. It is also useful to calculate a volume score (HSA Volume) between the data and the HSA surface to characterise the overall strength of combination effects. Empirically derived combination matrices are compared to their respective HSA additivity models constructed from experimentally collected single agent dose response curves. Summation of this excess additivity across the dose response matrix is referred to HSA Volume.
# (§3) Potency shifting can also be scored using combination index (CI). For a chosen iso-effect level (ICut), CI is calculated as: […]
# (§4) where (CX/ECX) for a particular data point is the ratio of the X compound's measured concentration to its effective concentration at the chosen effect level. The CI is a rough estimate of how much drug was needed in combination relative to the single agent doses required to achieve the chosen effect level. CI values in the range of 0.5-0.7 are typical for in vitro measurements of current clinical combinations. The CI error (σCI) is calculated using standard error propagation through the CI calculation based on the isobologram errors.
# (§5) This combination screen was a 10-day assay using Cell Titre Glo as the readout for viability.
# (§6) The assay was performed in 384 well plates, with 1 cell line and 4 drug-drug combinations per plate dosed in a 6×6 matrix. A day zero reading was measured to determine growth inhibition. GenedataScreener was used to input the raw values for every well, and the software was programmed to normalise the values to the day zero and DMSO control values.
# (§7) The CellTiter-Glo® Luminescent Cell Viability Assay is a homogeneous method to determine the number of viable cells in culture based on quantitation of the ATP present, which signals the presence of metabolically active cells. It relies on the properties of a proprietary thermostable luciferase (Ultra-Glo™ Recombinant Luciferase), which generates a stable “glow-type” luminescent signal and improves performance across a wide range of assay conditions.
# (§8) The following information was reported: Synergy scores (HSA); combination index values; AC50 (half-maximal activity concentration) monotherapy values.
# NCI-H1792 = details: Homo sapiens; NCI-H1792 lung; monotherapy; read-out: mono AC50
# Description: as §1, §2, §3, §4, §5, §6, §7, §8
# NCI-H3122 = details: monotherapy, read-out: mono AC50
# Description: as §1, §2, §3, §4, §5, §6, §7, §8
# JIMT-1 = details: Homo sapiens; JIMT-1 breast; monotherapy; read-out: mono AC50
# Description: as §1, §2, §3, §4, §5, §6, §7, §8
# HCC1954 = details: Homo sapiens; HCC1954 breast; monotherapy; read-out: mono AC50
# Description: as §1, §2, §3, §4, §5, §6, §7, §8
# T47D = details: Homo sapiens; T47D breast; monotherapy; read-out: mono AC50
# Description: as §1, §2, §3, §4, §5, §6, §7, §8
# HCC15 = HCC15 lung; monotherapy; read-out: mono AC50
# Description: as §1, §2, §3, §4, §5, §6, §7, §8
# BT474C1 = BT474C1 breast; monotherapy; read-out: mono AC50
# Description: as §1, §2, §3, §4, §5, §6, §7, §8
# MDA-MB-468 = details: Homo sapiens; MDA-MB-468 breast; monotherapy; read-out: mono AC50
# Description: as §1, §2, §3, §4, §5, §6, §7, §8
# NCI-H441 = details: Homo sapiens; NCI-H441 lung; monotherapy; read-out: mono AC50
# Description: as §1, §2, §3, §4, §5, §6, §7, §8
# HCC1569 = details: Homo sapiens; HCC1569 breast; monotherapy; read-out: mono AC50
# Description: as §1, §2, §3, §4, §5, §6, §7, §8
# HOP62 = details: Homo sapiens, HOP-62; HOP62 lung; monotherapy; read-out: mono AC50
# Description: as §1, §2, §3, §4, §5, §6, §7, §8
# MCF7 F100-16 = details: Homo sapiens; MCF7 F100-16 breast; monotherapy; read-out: mono AC50
# Description: as §1, §2, §3, §4, §5, §6, §7, §8
# DU4475 = details: Homo sapiens, DU-4475; DU4475 breast; monotherapy; read-out: mono AC50
# Description: as §1, §2, §3, §4, §5, §6, §7, §8
# LU99 = details: Homo sapiens, Lu-99; LU99 lung; monotherapy; read-out: mono AC50
# Description: as §1, §2, §3, §4, §5, §6, §7, §8
# NCI-H1573 = details: Homo sapiens, NCI-H1573, 240 h, NCI-H1573 lung; monotherapy; read-out: mono AC50
# Description: as §1, §2, §3, §4, §5, §6, §7, §8
# MCF7 T52 = details: Homo sapiens; MCF7 T52 breast; monotherapy; read-out: mono AC50
# Description: as §1, §2, §3, §4, §5, §6, §7, §8
# HCC1187 = details: Homo sapiens; HCC1187 breast; monotherapy; read-out: mono AC50
# Description: as §1, §2, §3, §4, §5, §6, §7, §8
# NCI-H1299 = details: Homo sapiens; NCI-H1299 lung; monotherapy; read-out: mono AC50
# Description: as §1, §2, §3, §4, §5, §6, §7, §8
# MDA-MB-134IV = MDA-MB-134IV breast; monotherapy; read-out: mono AC50
# Description: as §1, §2, §3, §4, §5, §6, §7, §8
# MDA-MB-231 = details: Homo sapiens; MDA-MB-231 breast; monotherapy; read-out: mono AC50
# Description: as §1, §2, §3, §4, §5, §6, §7, §8
# NCI-H23 = details: Homo sapiens; NCI-H23 lung; monotherapy; read-out: mono AC50
# Description: as §1, §2, §3, §4, §5, §6, §7, §8
# SW1573 = details: Homo sapiens; SW1573 lung; monotherapy; read-out: mono AC50
# Description: as §1, §2, §3, §4, §5, §6, §7, §8
# PC-9 = details: Homo sapiens; PC-9 lung; monotherapy; read-out: mono AC50
# Description: as §1, §2, §3, §4, §5, §6, §7, §8
structure (smiles),measurement,setting,value
"C[C@@H]1COCCN1c1cc(C2([S@](C)(=N)=O)CC2)nc(-c2ccnc3[nH]ccc23)n1 [AZD6738, 4-{4-[(3R)-3-Methylmorpholin-4-yl]-6-[1-((R)—S-methylsulfonimidoyl)cyclopropyl]pyrimidin-2-yl}-1H-pyrrolo[2,3-b]-pyridine]",AC50,HCC1806,412 nM
same,AC50,NCI-H1792,677 nM
same,AC50,"NCI-H3122; Homo sapiens, NCI-H3122, NCI-H3122 lung",3.12 µM
same,AC50,NCI-H3122; NCI-H3122 lung,3.21 µM
same,AC50,JIMT-1,869 nM
same,AC50,HCC1954,2560 nM
same,AC50,T47D,6.85 µM
same,AC50,HCC15,7.02 µM
same,AC50,BT474C1,3.83 µM
same,AC50,MDA-MB-468,2310 nM
same,AC50,NCI-H441,2960 nM
same,AC50,HCC1569,957 nM
same,AC50,HOP62,590 nM
same,AC50,MCF7 F100-16,1730 nM
same,AC50,DU4475,3.25 µM
same,AC50,LU99,581 nM
same,AC50,NCI-H1573,1390 nM
same,AC50,MCF7 T52,1390 nM
same,AC50,HCC1187,531 nM
same,AC50,NCI-H1299,3.18 µM
same,AC50,MDA-MB-134IV,5.78 µM
same,AC50,MDA-MB-231,866 nM
same,AC50,NCI-H23,221 nM
same,AC50,SW1573,3.65 µM
same,AC50,PC-9,510 nM
